Experimental data reported in US20060148030A1, “Nuclear receptor err y 3” (FUJISAWA PHARMACEUTICAL CO., LTD, priority 2002, published 2006).

T1: TR (Homo sapiens, UniProt P10827)
T1 construct: expressed in transfected cells; host or cells: CV-1 (African green monkey kidney)
T1 sequence (P10827 1-410 isoform P10827-2): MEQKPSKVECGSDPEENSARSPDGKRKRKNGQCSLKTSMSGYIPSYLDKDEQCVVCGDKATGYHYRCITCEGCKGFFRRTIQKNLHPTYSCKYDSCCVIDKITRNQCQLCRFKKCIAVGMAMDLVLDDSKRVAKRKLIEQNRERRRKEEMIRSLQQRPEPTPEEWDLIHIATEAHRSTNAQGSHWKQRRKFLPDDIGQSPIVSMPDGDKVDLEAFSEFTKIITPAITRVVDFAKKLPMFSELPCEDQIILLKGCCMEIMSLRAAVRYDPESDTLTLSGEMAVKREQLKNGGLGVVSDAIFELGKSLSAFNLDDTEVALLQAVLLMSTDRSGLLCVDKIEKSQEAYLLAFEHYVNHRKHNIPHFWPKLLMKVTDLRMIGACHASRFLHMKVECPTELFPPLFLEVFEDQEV

T2: ERα (Homo sapiens, UniProt P03372)
T2 construct: expressed in transfected cells; host or cells: CV-1 (African green monkey kidney)
T2 sequence (P03372 1-595): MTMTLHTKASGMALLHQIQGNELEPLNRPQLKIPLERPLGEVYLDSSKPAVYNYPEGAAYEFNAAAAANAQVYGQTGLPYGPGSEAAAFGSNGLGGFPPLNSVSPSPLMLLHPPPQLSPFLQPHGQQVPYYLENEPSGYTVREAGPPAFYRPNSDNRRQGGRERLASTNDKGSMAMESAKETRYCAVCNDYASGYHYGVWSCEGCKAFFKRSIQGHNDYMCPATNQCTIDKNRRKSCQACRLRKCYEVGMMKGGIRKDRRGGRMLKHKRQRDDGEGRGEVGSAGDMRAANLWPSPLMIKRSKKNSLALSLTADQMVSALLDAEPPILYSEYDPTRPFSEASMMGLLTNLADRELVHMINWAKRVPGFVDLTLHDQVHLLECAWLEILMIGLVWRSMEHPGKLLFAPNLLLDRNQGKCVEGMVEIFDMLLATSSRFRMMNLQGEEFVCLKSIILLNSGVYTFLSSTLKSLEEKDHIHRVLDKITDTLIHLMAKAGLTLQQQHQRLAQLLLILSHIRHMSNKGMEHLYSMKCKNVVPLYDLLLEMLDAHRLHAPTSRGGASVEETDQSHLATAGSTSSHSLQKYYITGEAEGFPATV

B1: ERRγ3: novel ERRγ isoform, nuclear receptor protein of 396 amino acids (SEQ ID NO: 2) lacking part of the DNA binding domain (protein, listed as Homo sapiens)
chain: MSNKDRHIDSSCSSFIKTEPSSPASLTDSVNHHSPGGSSDASGSYSSTMNGHQNGLDSPPLYPSAPILGGSGPVRKLYDDCSSTIVEDPQTKCEYMLNSMPKRLCLVCGDIASGYHYGVASCEACKAFFKRTIQGVRLDRVRGGRQKYKRRIDAENSPYLNPQLAQPAKKPYNKIVSHLLVAEPEKIYAMPDPTVPDSDIKALTTLCDLADRELVVIIGWAKHIPGFSTLSLADQMSLLQSAWMEILILGVVYRSLSFEDELVYADDYIMDEDQSKLAGLLDLNNAILQLVKKYKSMKLEKEEFVTLKAIALANSDSMHIEDVEAVQKLQDVLHEALQDYEAGQHMEDPRRAGKMLMTLPLLRQTSTKAVQHFYNIKLEGKVPMHKLFLEMLEAKV

Columns and labels:
TR = biological target: T1, TR; experiment: Reporter gene assay, ERRγ3 coexisted with TR in CV-1 cells; type: cell-based
ERRγ2 [1] = settings: stated as known property; cited from earlier work
ERα = biological target: T2, ERα; experiment: Reporter gene assay, ERRγ3 or ERRγ2 coexisted with ERα in CV-1 cells; type: cell-based; settings: for enhancement of the transcriptional activation function of ERα: absence of 4-hydroxytamoxifen
Description: (§1) The reporter gene assay was performed using CV-1 cells (African green monkey kidney-derived cell line) as hosts. Host cells were transfected with luciferase reporter plasmids and expression plasmids for ERRγ3, ERRγ2, or both. They were then exposed to 4-hydroxytamoxifen at different concentrations (0, 10^−10 to −10^−5 M) for 24 hours, whereupon luciferase activity within the cells was measured.
(§2) Transfection was performed as follows: CV-1 cells were suspended at 2×10^5 cells/2.5 ml in DMEM medium supplemented with 10% fetal bovine serum, 2000 U/l of penicillin G, and 100 mg/l streptomycin. These cells were seeded to a 6-well plate at 2.5 ml/well, and cultured for 18 to 24 hours in a CO2 incubator at 37° C. in the presence of 5% CO2. 1 μg of each of the transcription factor expression plasmid, the luciferase reporter plasmid, and another luciferase reporter plasmid for normalizing the measured value (pRL-TK), were dissolved in Opti-MEM (Gibco BRL) to total of 150 μl. 7 μl of the cell transfection reagent LipofectAMINE 2000 (Gibco BRL) was diluted in 143 μl of Opti-MEM, and this was added to the mixture drop by drop while stirring. The mixture was incubated for 20 minutes.
The LipofectAMINE-DNA mixture was diluted in 1.5 ml of Opti-MEM, and added to cells that had been twice washed with 1 ml of PBS(−). The cells were cultured for four hours. The transfection reagent was removed from the culture, and 200 μl of trypsin/EDTA was added to the cells, which were then incubated at 37° C. for five minutes. […] of DMEM was added to suspend the cells, which were transferred to a centrifuge tube, and centrifuged for three minutes at 1000 rpm. After centrifugation, the cells were resuspended in DMEM to a concentration of 1.6×10^4 cells/100 μl, and 100 μl samples were seeded to a 96-well plate. When evaluating agents, a two-fold concentrated solution was made by pre-diluting a 1000 times concentrated agent DMSO solution with culture medium. 50 μl of the solution was mixed with 50 μl of a cell suspension at 1.6×10^4 cells/50 μl, and the culture was incubated in a CO2 incubator at 37° C. and 5% CO2 for 24 hours.
Luciferase activity was measured using the Dual-Luciferase™ Reporter Assay System (Promega). The culture supernatant was removed from each well of the 96-well plate and washed once with 100 μl of PBS(−). 20 μl of ×1 PLB (Passive Lysis Buffer) was added, and the mixture was incubated at room temperature for 15 minutes, and then stored at −20° C. in the freezer until use. […] The protocol for measurement was as follows: 50 μl of Luciferase Assay Reagent II was added to each well, stirred for 0.3 seconds and measured for one second. […] of Stop&Glo™ Reagent was then added, stirred for 0.3 seconds, and measured for one second. […] Average values and standard errors were calculated from triplicate samples.
To confirm whether or not ERRγ3 can regulate the transcription-controlling function of nuclear receptors other than ERRγ2, ERRγ3's function of regulating the transcription-controlling activity of nuclear receptors related to ERRγ (ERα, ERβ, and TR) was evaluated using a reporter gene assay. […] In addition to 4-hydroxytamoxifen, the cells were also contacted with 10^−5 M of (R)-estradiol in experiments related to ERα and ERβ, and 10^−5 M of thyroxine in the experiment related to TR.
The transfected cells were contacted with varying concentrations of 4-hydroxytamoxifen in the absence of […] or presence of 10^−7 M of β-estradiol.

ERRγ2 [2] = experiment: Reporter gene assay, ERRγ3 coexisted with ERRγ2, ERE luciferase reporter in CV-1 cells; type: cell-based, human; settings: FIG. 15
Description: as §1
as §2, with “The mixture was incubated for 20 minutes.” left out
Luciferase activity was measured using the Dual-Luciferase™ Reporter Assay System (Promega). […] The protocol for measurement was as follows: 50 μl of Luciferase Assay Reagent II was added to each well, stirred for 0.3 seconds and measured for one second.

ERβ = biological target: T3, ERβ (Homo sapiens, UniProt Q92731); experiment: Reporter gene assay, ERRγ3 coexisted with ERβ in CV-1 cells; type: cell-based
T3 construct: expressed in transfected cells; host or cells: CV-1 (African green monkey kidney)
T3 sequence (Q92731 whole entry): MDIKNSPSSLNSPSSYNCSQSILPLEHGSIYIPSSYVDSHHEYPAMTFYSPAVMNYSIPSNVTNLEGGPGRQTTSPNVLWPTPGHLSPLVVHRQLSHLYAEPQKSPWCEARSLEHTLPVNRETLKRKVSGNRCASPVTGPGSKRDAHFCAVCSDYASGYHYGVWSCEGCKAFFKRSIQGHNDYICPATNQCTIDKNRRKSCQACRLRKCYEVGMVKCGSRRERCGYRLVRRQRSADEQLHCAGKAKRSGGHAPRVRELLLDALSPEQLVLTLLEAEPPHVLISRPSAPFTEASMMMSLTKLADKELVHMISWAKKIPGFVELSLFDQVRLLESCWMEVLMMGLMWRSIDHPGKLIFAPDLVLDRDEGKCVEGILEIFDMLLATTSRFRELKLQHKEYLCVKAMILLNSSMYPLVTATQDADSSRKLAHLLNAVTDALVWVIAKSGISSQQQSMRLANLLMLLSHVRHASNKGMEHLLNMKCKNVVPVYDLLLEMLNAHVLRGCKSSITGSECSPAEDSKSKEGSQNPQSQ

Sequence of ERRγ2 (P62508 whole entry): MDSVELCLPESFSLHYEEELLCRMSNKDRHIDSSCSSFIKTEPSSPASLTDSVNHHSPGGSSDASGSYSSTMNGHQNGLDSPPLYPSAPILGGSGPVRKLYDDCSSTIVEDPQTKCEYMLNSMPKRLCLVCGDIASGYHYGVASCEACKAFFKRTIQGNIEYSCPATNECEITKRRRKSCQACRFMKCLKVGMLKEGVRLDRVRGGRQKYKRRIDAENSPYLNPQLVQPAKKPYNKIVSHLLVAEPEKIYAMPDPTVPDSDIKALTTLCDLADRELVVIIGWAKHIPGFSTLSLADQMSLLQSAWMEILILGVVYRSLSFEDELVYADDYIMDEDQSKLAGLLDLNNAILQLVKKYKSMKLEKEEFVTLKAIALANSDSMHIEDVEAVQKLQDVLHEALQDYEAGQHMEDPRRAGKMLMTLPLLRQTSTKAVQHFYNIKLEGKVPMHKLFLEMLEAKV

| Molecule | effect of 4-hydroxytamoxifen on the enhancing function of ERRγ3 on TR (TR; 10^−5 M thyroxine present) | binding to ERRγ2 (ERRγ2 [1]) | effect of 4-hydroxytamoxifen on the function of ERRγ3 on ERα (ERα; in the presence of the ligand, 10^−5 M (R)-estradiol, CV-1 cells) | effect of 4-hydroxytamoxifen on the transcription enhancing function of ERRγ3 on ERα (ERα; β-estradiol absent or 10^−7 M, 4-hydroxytamoxifen at high concentrations, FIGS. 19-20) | 4-hydroxytamoxifen concentration at which the enhancing function of ERRγ3 on ERRγ2 was reduced (ERRγ2 [2]; CV-1 cells, 24 hours exposure) | effect of 4-hydroxytamoxifen on the enhancing function of ERRγ3 on ERβ (ERβ; 10^−5 M (R)-estradiol present) | function enhancement of the transcription-controlling activity of TR (TR; ERRγ3 with TR, 10^−5 M thyroxine, FIG. 18) | function enhancement of the transcription-controlling activity of ERα (ERα; ERRγ3 with ERα, 10^−5 M (R)-estradiol, CV-1 cells, FIG. 16) | enhancement of the transcriptional activation function of ERα (ERα; absence of β-estradiol, FIG. 19) | enhancement of the transcriptional activation function of ERα (ERα; presence of 10^−7 M β-estradiol, FIG. 20) | enhancement of the transcriptional activation function of ERRγ2 (ERRγ2 [2]; ERRγ3 coexisted with ERRγ2, CV-1 cells, ERE luciferase reporter) | function enhancement of the transcription-controlling activity of ERβ (ERβ; ERRγ3 with ERβ, 10^−5 M (R)-estradiol, FIG. 17) |
| --- | --- | --- | --- | --- | --- | --- | --- | --- | --- | --- | --- | --- |
| 4-hydroxytamoxifen [reference compound] | no function-enhancing effect | capable of binding | increased dependent on the concentration of 4-hydroxytamoxifen | reduced in the presence of 4-hydroxytamoxifen at high concentrations | ≥ 10^−6 M | no function-enhancing effect |  |  |  |  |  |  |
| B1 |  |  |  |  |  |  | 128-229% | 13-74% | 64% | 18% | 53-68% | 600-650% |
